Measurements published in patent US10610575B2, “Method for improving feed digestibility in bovine animals” (DSM IP ASSETS B.V., priority 2015, dated 2020).

System: finishing Nelore cattle in feedlot
Assay: Animal performance trial: Crina Ruminants and Ronozyme Rumistar for finishing Nelore cattle in feedlot
Format: in vivo
Procedure: The study has been carried out at facilities of Animal Science Department at ESALQ/USP (University of São Paulo), Piracicaba-SP, Brazil. Treatments have been allocated in fifty pens, with 6 animals per pen. Water has been supplied for ad libitum consumption and feed once a day. Cattle have been withheld from feed and water for 16 hours before body weight (BW) assessment at the beginning and at the end of the experiment. After 28 and 56 days body weight (BW) has been assessed to monitor the partial average daily gain. [table] [table]

CC[C@@]1([C@@H]2O[C@@H]([C@H]3O[C@@](O)(CO)[C@H](C)C[C@@H]3C)C[C@@H]2C)CC[C@H]([C@]2(C)CC[C@]3(C[C@H](O)[C@@H](C)[C@@H]([C@@H](C)[C@@H](OC)[C@H](C)C(=O)O)O3)O2)O1 [MONENSIN, Monensin] was tested, and the “ADG (average daily gain)” value (After 59 days) was 1.342b kg/d, the “DMI (dry matter intake)” value (After 59 days) was 8.63b kg/d and the “FE (feed efficiency), ADG:DMI” value (After 59 days) was 0.155b. For the same molecule, the “ADG (average daily gain)” value (adaptation period - 28 days) was 1.352b kg/d, the “DMI (dry matter intake)” value (adaptation period - 28 days) was 7.73b kg/d and the “FE (feed efficiency), ADG:DMI” value (adaptation period - 28 days) was 0.177bc.
